In patent US11021472B2, “Use of compounds comprising two or more hydrophobic domains and a hydrophilic domain comprising PEG moieties for stabilization of a cell” (Roche Diagnostics Operations, Inc., priority 2013, dated 2021):
Values joined by “and” are separate entries in the source; they are usually repeats but may differ in a detail not shown here. Identical values can stand only once.

Experiments:
CHO = experiment: Labelling (staining) of cells with labelled molecules; format: cell-based
Description: (§1) As shown in the examples, a compound for use according to the invention, wherein the compound comprises a label moiety, is contacted with a cell. As labelling is preferably done with viable or potentially viable cells, the cells are typically present in an aqueous solution, which is preferably buffered and/or contains nutrients, e.g. the cells are suspended in PBS. The labeled compound for use according to the invention may be added to the cells, e.g. in form of a solution, e.g. as aqueous solution by methods known in the art, as pipetting.

Epithelial cells = experiment: as above; format: cell-based
Description: as §1

WBCs [1] = experiment: as above; format: cell-based
Description: as §1

Hela = experiment: as above; format: cell-based
Description: as §1

WBC [2] = settings: Example 5 B; centrifugation 10 min, 300×g
WBC [3] = experiment: WBC recovery rate after centrifugation (stabilization of cells); format: cell-based, human; settings: Centrifugation 10 min, 300×g
Procedure: (§2) Centrifugation characteristics: 10 min, 300×g.
as §2
The respective left, middle and right columns per assay represent different Experimenters 1, 2 and 3. […] Centrifugation characteristics: 10 min, 300×g. Molecule: Cholesteryl-TEG-Cholesteryl-TEG-(SpacerC18)7-Fluos-Biotin-TEG.
(§3) Following molecules were tested: 1234: 5′-(Cholesteryl-TEG)2-Spacer C18-dT-Biotin-TEG-3′; 1248: 3′-(Cholesteryl-TEG)2-PEG2000-Fluos-Biotin-TEG-5′ INVERS; 1254: 3′-(Cholesteryl-TEG)2-SpacerC18-Fluos-Biotin-TEG-5′ INVERS; 1255: 3′-(Myristic acid)2-PEG2000-dT-Biotin-TEG-5′ INVERS. […] Centrifugation characteristics: 20 min, 300×g. Respective left column: 10 min incubation with molecule. Respective middle column: 1 h min incubation with molecule. Respective right column: 2 h incubation with molecule.
Following molecules were tested: 1255: 3′-(Myristic acid)2-PEG2000-dT-Biotin-TEG-5′ INVERS; 1234: 5′-(Cholesteryl-TEG)2-Spacer C18-dT-Biotin-TEG-3′; 1248: 3′-(Cholesteryl-TEG)2-PEG2000-Fluos-Biotin-TEG-5′ INVERS; 1254: 3′-(Cholesteryl-TEG)2-SpacerC18-Fluos-Biotin-TEG-5′ INVERS. […] Centrifugation characteristics: 20 min, 500×g. Respective left column: 10 min incubation with molecule. Respective middle column: 1 h min incubation with molecule. Respective right column: 3 h incubation with molecule.
as §3, with “tested: 1255: 3′-(Myristic acid)2-PEG2000-dT-Biotin-TEG-5′ INVERS;” for “tested:”, “3′-(Cholesteryl-TEG)2-SpacerC18-Fluos-Biotin-TEG-5′” for “3′-(Cholesteryl-TEG)2-SpacerC18-Fluos-Biotin-TEG-5′ INVERS; 1255: 3′-(Myristic acid)2-PEG2000-dT-Biotin-TEG-5′”, “1000×g.” for “300×g.”
Stabilization is typically determined on a population of cells, e.g. 2, 10, 100 or more cells, and the respective mean viability of the cell populations are compared. […] Viability may be determined by determining cell morphology, cell viability and/or cell recovery. Methods for determining cell morphology, cell viability and cell recovery are known in the art. […] For determining cell morphology, visual inspection by microscopy may be performed. For determining cell viability, a cell viability test using WST-1 proliferation kit (RAS) may be performed.

WBCs [4] = experiment: Recovery rate of cells after immobilization on streptavidin (SA) plate; format: cell-based; settings: WBCs, 100 nmol/10e6 cells
Procedure: X=hydrophobic moiety, […]=fluorescein In the following experiment, the recovery rate of cells was determined.

COS 7 = experiment: Labelling (staining) of cells with labelled molecules; format: cell-based
Description: as §1

MDA-MB468 = experiment: as above; format: cell-based
Description: as §1

Jurkats = experiment: as above; format: cell-based
Description: as §1

NIH 3T3 = experiment: as above; format: cell-based
Description: as §1

U937 = experiment: as above; format: cell-based
Description: as §1

Compound	staining of cells by labelled molecule (CHO)	staining of cells by labelled molecule (Epithelial cells)	staining of cells by labelled molecule (WBCs [1])	staining of cells by labelled molecule (Hela)	time within which cell immobilization is enabled (WBC [2])	WBC recovery rate after centrifugation: dependence on molecule concentration (WBC [3])	Recovery Rate (WBCs [4]; listed as Biotin-PEG-Lysin-(C18)2)	Recovery Rate (WBCs [4]; may be to due 1.5-2 h exposure of plate)	staining of cells by labelled molecule (COS 7)	staining of cells by labelled molecule (MDA-MB468)	staining of cells by labelled molecule (Jurkats)	staining of cells by labelled molecule (NIH 3T3)	staining of cells by labelled molecule (U937)
CCCCCCCCCCCCC/C=C/[C@@H](O)[C@H](COP(=O)([O-])OCC[N+](C)(C)C)NC(=O)CCCCc1ccc2n1[B-](F)(F)[N+]1=C(C)C=C(C)C1=C2 [Sphingomyelin, N-(4,4-difluoro-5,7-dimethyl-4-bora-3a,4a-diaza-s-indacene-3-pentanoyl)sphingosyl phosphocholine]	x very weak	✓	(x)- very bad	✓	–	–	–	–	–	–	–	–	–
Biotin-PEG-Lys-(C18)2	–	–	–	–	≤ 3.5 h	The higher the molecule concentration, the higher the cell recovery rate after centrifugation	83.9% and 75.0% and 66.0%	33.0%	–	–	–	–	–
5′-CholesterylTEG-CholesterylTEG-PEG2000-Fluos-3′ [BMO 29.891133]	✓	✓	50-200 ms) ✓	✓	–	–	–	–	✓	✓	✓	✓	✓
CCCCC/C=C\C/C=C\CCCCCCCCN1C(=CC=CC2=[N+](CCCCCCCC/C=C\C/C=C\CCCCC)c3ccccc3C2(C)C)C(C)(C)c2ccccc21.[O-][Cl+3]([O-])([O-])[O-] [Linol, 1,1′-dilinoleyl-3,3,3′,3′-tetramethylindocarbocyanine perchlorate]	✓	✓	20-50 ms) ✓	✓	–	–	–	–	✓	✓	✓	✓	✓
CCCCCCCCCCCCCCCCCCCCCC[N+]1=C(/C=C/C=C2/N(CCCCCCCCCCCCCC)c3ccccc3C2(C)C)C(C)(C)c2ccccc21.[I-] [PKH26]	✓	✓ not all	not stained) ✓	✓*	–	–	–	–	✓	✓	✓	✓	✓
CCCCCCCCCCCCCCCC(=O)OC[C@H](COP(=O)(O)OCCNC(=O)CCc1ccc2n1[B-](F)(F)[N+]1=C(C)C=C(C)C1=C2)OC(=O)CCCCCCCCCCCCCCC.CCN(CC)CC [Phosphatidylethanolamine, N-(4,4-difluoro-5,7-dimethyl-4-bora-3a,4a-diaza-s-indacene-3-propionyl)-1,2-dihexadecanoyl-sn-glycero-3-phosphoethanolamine, triethylammonium salt]	–	–	–	x/✓ very weak	–	–	–	–	–	–	–	–	–
CCCCCCCCCCCCCCCCCCN1C(=CC=CC2=[N+](CCCCCCCCCCCCCCCCCC)c3ccccc3C2(C)C)C(C)(C)c2ccccc21.[O-][Cl+3]([O-])([O-])[O-] [1,1′-Dioctadecyl-3,3,3′,3′-tetramethylindocarbocyanin perchlorate]	✓	✓	✓ not all	✓	–	–	–	–	✓	✓	✓	✓*	✓
